For orientation: IC50 means the point on the concentration scale where inhibition reaches its midpoint. Usually CLint scaled stands for the rate of metabolic loss divided by the concentration.

For series [1], the system named is PAR4. On the set-up: method as in PMID 28053157. To be noted: cited from earlier work.
On the set-up of series [2]: method as in PMID 35758258, PMID 23222541. To be noted: phase I, healthy participants; cited from earlier work.
The test system of series [3] is PAR4. Also noted: method as in PMID 27777004. To be noted: read-out: IC50 against γ-thrombin; cited from earlier work.
For series [4], the target named is T1, mouse PAR4 (Mus musculus, UniProt O88634).
T1 construct: washed mouse platelets were prepared by collecting cardiac puncture blood; endogenous in cells; host or cells: washed mouse platelets (cardiac puncture blood)
T1 sequence (O88634 17-396): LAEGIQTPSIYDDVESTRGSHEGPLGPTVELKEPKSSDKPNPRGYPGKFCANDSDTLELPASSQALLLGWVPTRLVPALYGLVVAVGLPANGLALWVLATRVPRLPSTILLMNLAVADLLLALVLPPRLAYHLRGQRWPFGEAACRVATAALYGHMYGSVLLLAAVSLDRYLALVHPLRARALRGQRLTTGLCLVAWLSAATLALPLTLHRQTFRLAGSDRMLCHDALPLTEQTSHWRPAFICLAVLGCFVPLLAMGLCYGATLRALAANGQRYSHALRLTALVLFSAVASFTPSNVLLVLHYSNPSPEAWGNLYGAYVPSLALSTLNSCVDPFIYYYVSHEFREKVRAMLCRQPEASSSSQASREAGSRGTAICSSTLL
In words: Mouse platelet activity assay, flow cytometry, γ-thrombin activation. In kind it is cell-based. How it is done: For mouse PAR4 activity, washed mouse platelets were prepared by collecting cardiac puncture blood with 200 μL of 20 U/mL heparin. Following centrifugation at 1000 rpm for 15 min, plasma and buffy coat were collected into a separate tube and spiked with apyrase and PGE1. After centrifuging at 1000 rpm for 8 min, the platelet-rich plasma was transferred to another tube and centrifuged at 2200 rpm for 10 min to pellet the platelets. Platelets were resuspended in TBB + apyrase + PGE1. Platelets were counted and diluted in TBB to a final concentration of 2 × 10^7 platelets/mL. 50 μL of platelets were aliquoted to each tube preincubated with 50 μL of TBB with antibodies for mouse GPIIbIIIa and P-selectin (Emfret, Eibelstadt Germany) and either test compound antagonist or DMSO control. Platelets were activated with 316 nM γ-thrombin for 30 min. Samples were then fixed with 100 μL of 2% paraformaldehyde for 20 min and diluted with 300 μL of PBS. Flow cytometry counts are measured as for human platelets on a three-laser BD LSRFortessa (Becton Dickinson) and analyzed with FloJo software.
A general note: Flow cytometry measures light scatter and fluorescence of single cells or particles in a stream.

Series [5] can be described thus: Microsomal stability, human liver microsomes. It counts as in vitro ADME. How it is done: The metabolic stability of each compound was investigated in mouse and human hepatic microsomes using substrate depletion methodology (% parent compound remaining). Prior to use, microsomes were removed from the freezer and allowed to thaw in a 37 °C water bath before being placed on wet ice.
In separate 96-well plates for each time point, a mixture of 0.1 M potassium phosphate-buffered (pH 7.4), 3 mM MgCl2, and 2.5 mg/mL microsomes were prewarmed at 37 °C for 5 min. Following the preincubation, a 1 μM test compound and 1 mM NADPH (for 3, 7, 15, 25, or 45 min time points) or buffer (for 0 min time point) were added to initiate the reaction. Under standard conditions, reactions were initiated with the addition of NADPH. To delineate the contribution of esterases, some experiments were initiated by the addition of substrate in the presence or absence of NADPH. Plates were incubated at 37 °C under ambient oxygenation. At the respective times, each plate’s reaction was precipitated by the addition of 2 volumes of ice-cold acetonitrile containing an internal standard (carbamazepine, 50 nM). The plates were centrifuged at 4000 rcf (4 °C) for 5 min. The resulting supernatants were transferred and diluted 1:1 (supernatant:water) into new 96-well plates in preparation for LC/MS/MS analysis. Each compound was assayed in triplicate within the same 96-well plate. The in vitro half-life (t1/2, min, eq 1), intrinsic clearance (CLint, mL/min/kg, eq 2), and subsequent predicted hepatic clearance (CLhep, mL/min/kg, eq 3) were determined employing the following equations [drawing 1] 1 [drawing 2] 2 [drawing 3] 3 The estimated percent contribution to metabolism was calculated from the percent substrate lost plots generated from metabolic incubations initiated with the addition of a test compound. Calculations compared the area under the curve (AUC) from conditions in the presence and absence of NADPH and buffer-only (control) conditions (eqs 4 and 5). AUC was calculated by using the trapezoidal method [drawing 4] 4 [drawing 5] 5
The analysis of in vitro samples from microsomal stability or plasma protein binding experiments was determined by employing LCMS/MS with an electrospray ionization-enabled 5500 Sciex instrument (Sciex, Foster City, CA) that was coupled to Agilent HPLC pumps and an autosampler (Agilent Technologies, Santa Clara, CA). Analytes were separated by gradient elution using a Kinetex C18 column (2.1 mm × 50 mm, 5 μm; Phenomenex, Torrance, CA) warmed to 35 °C. Mobile phase A was 0.5% formic acid in water, and mobile phase B was 0.5% formic acid in acetonitrile. […] The total run time was 2.8 min, and the HPLC flow rate was 0.5 mL/min. Mass spectral analyses were performed using multiple reaction monitoring, with transitions and voltages specific for each analyte using a Turbo Ion Spray source (source temperature of 500 °C) in positive ionization mode (5.0 kV spray voltage). Multiple reaction monitoring transitions were the following: 6110B8 (m/z 345.02 → 149.03, DP = 31; EP = 10; CE = 37 and CXP = 14), 6G3R (m/z 421.06 → 225.12, DP = 91; EP = 10; CE = 39 and CXP = 12), 5D22 (m/z 309.068 → 211.16, DP = 131; EP = 10; CE = 29 and CXP = 12), and carbamazepine (m/z 237 → 194, DP = 96; EP = 10; CE = 25 and CXP = 8). Data were analyzed using OS Sciex Analyst 1.5.1 (SCIEX, Framingham, MA), Graphpad Prism 10.1.0 (GraphPad Software, Boston, Massachusetts), and Microsoft Excel version 2310 (Microsoft, Redmond, WA).
For orientation: Liver microsomes are a subcellular fraction often used to study metabolism.

Series [6] can be described thus: Plasma protein binding, human plasma. In kind it is in vitro ADME. To be noted: pH 7.4, read-out: human PPB fu.
For series [7], the target named is T2, PAR1 (Homo sapiens, UniProt P25116).
T2 construct: endogenous in cells; host or cells: platelets
T2 sequence (P25116 22-425): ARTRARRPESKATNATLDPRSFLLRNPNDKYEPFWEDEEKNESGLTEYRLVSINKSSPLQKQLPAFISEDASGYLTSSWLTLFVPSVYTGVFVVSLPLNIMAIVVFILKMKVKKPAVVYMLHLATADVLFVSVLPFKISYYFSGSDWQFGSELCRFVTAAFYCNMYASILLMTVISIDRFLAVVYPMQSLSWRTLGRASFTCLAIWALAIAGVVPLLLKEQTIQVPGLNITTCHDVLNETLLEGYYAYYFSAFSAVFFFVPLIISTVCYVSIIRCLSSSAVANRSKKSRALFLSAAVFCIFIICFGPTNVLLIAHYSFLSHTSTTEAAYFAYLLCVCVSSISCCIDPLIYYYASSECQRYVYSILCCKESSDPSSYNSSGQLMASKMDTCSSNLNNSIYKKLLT
Also noted: method as in PMID 22443427, PMID 22077816. To be noted: cited from earlier work.

Where two headings read alike, the source gives them in different places.

On to `COc1cc(OCc2nc(N3CCOCC3)sc2C)c2cc(-c3cn4nc(OC)sc4n3)oc2c1` [BMS-986120], for which, in series [1] (cynomolgus monkey arterial thrombosis model), the antithrombotic activity entry is “potent and highly efficacious antithrombotic activity”. For the same molecule, the bleeding liability result in series [1] (nonhuman primate model) is reported as “low bleeding liability”. Moreover, the safety and tolerability entry in series [2] is “safe and well tolerated”.
Regarding `COc1cc(OCc2csc(-c3ccc(C(=O)N(C)C)cc3)n2)c2cc(-c3cn4nc(OC)sc4n3)oc2c1` [BMS-986141], the safety and tolerability entry in series [2] was “safe and well tolerated”.
For the molecule `COc1nn2cc(-c3c(CO)n(Cc4ccccc4Cl)c4ccc(OC(F)(F)F)cc34)nc2s1` [Compound 6], in series [3], the IC50 is 4350 nM.
For `O=C(Nc1n[nH]c(-c2cccc(OC(F)F)c2)n1)c1nn(-c2ccccc2)c2c1CCCC2` [Compound 33], the IC50 in series [4] (Table 4 summary, read-out: mouse PAR4 IC50) came out at 296 nM; in series [4] (mouse platelets, 316 nM γ-thrombin, GPIIbIIIa (JonA), read-out: Mouse Platelets JonA IC50) it was 296 nM; in series [4] (mouse platelets, 316 nM γ-thrombin, P-selectin, read-out: Mouse Platelets P-Sel IC50), 345 nM. Moreover, the CLint scaled at 1 µM in series [5] (pH 7.4, human liver microsomes, in vitro, reaction started with NADPH) was found to be 416 mL/min/kg. For the same molecule, in series [5] (predicted hepatic clearance from human liver microsomes), the “human CLhep” value was 20 mL/min/kg. For the same molecule, in series [6], the fraction unbound at 4 h was 0.006.
In the case of `CCOC(=O)N[C@@H]1CC[C@@H]2[C@@H](C1)C[C@H]1C(=O)O[C@H](C)[C@H]1[C@H]2/C=C/c1ccc(-c2cccc(F)c2)cn1` [vorapaxar], in series [7] (added to standard care, acute coronary syndrome, phase 3), the primary efficacy outcome is “failed to meet its primary efficacy outcome”. For the same molecule, in series [7] (phase 3, especially intracranial hemorrhage), the bleeding entry was “excess of major bleeding”.

(Values after publication PMC11020070, “Discovery of Protease-Activated Receptor 4 (PAR4)-Tethered Ligand Antagonists Using Ultralarge Virtual Screening” (ACS Pharmacology & Translational Science, 2024).)
